Columns and labels:
Kentucky bluegrass = assay: Test 7 postemergence; format: in vivo, Poa pratensis; conditions: scale 0-100
Procedure: (§1) Individual 11.4-cm plastic pots filled with planting medium were seeded with rape, wild radish (Raphanus raphanistruna). tansy mustard (Descurainia pinnata), ball mustard (Neslia paniculata), black mustard (Brassica nigra), yellow mustard, brown mustard, lentils, safflower, flax, sunflower, peanut, vetch, alfalfa, field bean, pea, violet (Viola spp), Kochia (Kochia spp), Russian thistle (Salsola spp), Matricaria spp, groundsel (Senecio spp), shepherdspurse (Capsella bursa-pastoris), nightshade (Solanum spp), sowthistle (Sonchus spp), sugar beet, wheat, "Bonanza" barley and "Morex" barley, Kentucky bluegrass (Poa pratensis), red clover (Trifolium pratense), dandelion (Taraxacum spp) and buckhorn plantain (Plantago lanceolata).
(§2) Plants were treated postemergence with the compound formulated with a non-phytotoxic carrier. Plants were visually rated 18 days after treatment (DAT). Response ratings were based on the scale of 0 to 100 where 0 = no effect, 20 = minimal injury and 100 = complete control.

Common ragweed = assay: Test 11 citrus pots, preemergence to the weeds; format: in vivo, Ambrosia artemisiifolia; conditions: Preemergence 32 g/ha; 0.25% X-77 surfactant; scale 0-100
Procedure: (§3) Budded citrus seedlings were planted in 30-liter plastic pots which were also seeded with sandbur, guineagrass, narrowleaf panicum, common ragweed, yellow nutsedge, purple nutsedge and bindweed. Compound I was applied preemergence and postemergence to the weeds. Treatments were sprayed to simulate the trunk-to-trunk herbicide application method used in some citrus groves. The compound was also applied postemergence to weeds grown in windowsill flats. The flats were filled with planting medium and seeded with morningglory (Ipomoea spp.). purple nutsedge (Cyperus rotundus), pigweed (Amaranthus spp.), bindweed (Convolvulus spp.), narrowleaf panicum (Panicum maximum), common ragweed (Ambrosia artemisiifolia), sandbur (Cenchrus echinatus), itchgrass (Rottboellia exaltata), johnsongrass (Sorghum halepense), guineagrass (Panicum maximum), smooth crabgrass (Digitaria ischaemum), broadleaf signalgrass (Brachiaria platyphylla), bermudagrass (Cynodon dactylon), goosegrass (Eleusine indica), large crabgrass (Digitaria sanguinalis) and yellow nutsedge (Cyperus esculentus).
(§4) The compound was formulated and sprayed with 0.25% X-77 surfactant in water. Plants were visually rated 21 and 29 days after treatment and compared with appropriate controls. Injury ratings were based on the scale of 0 to 100, where 0 indicates no effect, 20 indicates minimum effect and 100 indicates complete control. […]

Large Crabgrass = assay: Test 5 sugarcane injury and weed control, postemergence; format: in vivo, Digitaria sanguinalis; conditions: scale 0-100
Procedure: (§5) Sugarcane (Saccharum spp.) cuttings which had been pre-sprouted were planted in 15-cm plastic pots. Narrowleaf panicum (Panicum maximum), large crabgrass (Digitaria sanguinalis), guineagrass (P. maximum) and itchgrass (Rottboellia exaltata) were seeded in individual 15-cm plastic pots.
(§6) The pots were treated postemergence when the plants had 3 to 4 leaves with 2 to 3 tillers with Compound I formulated in a non-phytotoxic carrier made up of acetone-humectant-water-surfactant (22:1:1:0.05 v/v). The degree of crop injury and weed control was visually rated 27 days after treatment (DAT). Plant injury ratings are based on the scale of 0 to 100 where 0 = no effect, 20 = minimal injury and 100 = complete control.

Coffee = assay: Test 9 postemergence; format: in vivo; conditions: scale 0-100
Procedure: Plastic windowsill pots containing planting medium were seeded with bahiagrass, bindweed (Convolvulus spp), guinea grass (Panicum maximum), large crabgrass (Digitaria sanguinalis) and pigweed (Amaranthus spp). Individual 15-cm plastic pots contained sandbur (Cenchrus echinatus), Mikania cordata, Boston fern (Nephrolepis exalata), quackgrass (Agropyron repens), elephantgrass (Pennisetum purpureum) and sowthistle (Sonchus spp) plants.
Plants were treated postemergence with Compound I formulated in a non-phytotoxic solvent. Plants were visually rated 22 days after treatment (DAT). Injury and weed control ratings were based on the scale of 0 to 100 where 0 = no effect, 20 = minimal control and 100 = complete control.

Goldenrod = assay: Test 4 plantation crop weeds, postemergence; format: in vivo, Solidago spp; conditions: Table 6, profusely branching, scale 0-100
Description: The object of this test was to evaluate the efficacy of the compound of this invention on weeds that infest some plantation crops at different growth stages of the weeds. Asystasia intrusa, Mikania cordata, goldenrod Solidago spp, Boston fern Nephrolepis exalata, and lalang Imparata cylindrica were planted in 15-cm plastic pots. Plants were sprayed postemergence with Compound I in a non-phytotoxic solvent. The Asystasia plants ranged in growth from 4 leaves to 9 leaves and very branched, Mikania had 6 leaves to vining, the goldenrod was branching and the Boston fern was growing vigorously. The degree of weed control was visually rated 20 to 24 days after treatment (DAT). Control ratings are based on the scale of 0 to 100 where 0 = no effect, 20 = minimal control and 100 = complete control. Variations in the results of the tests could be due to the fact that the tests were run at different times of the year or due to the stage of growth of the weeds.

Goosegrass = assay: Test 11 windowsill flats, postemergence; format: in vivo, Eleusine indica; conditions: Postemergence 32 g/ha, 0.25% X-77 surfactant, scale 0-100
Procedure: as §3, §4

Lantana = assay: Test 12 over-the-top application, postemergence; format: in vivo, Lantana camara; conditions: 26 days after treatment, scale 0-100
Description: The object of this test was to evaluate the safety of sour lemon to the over-the-top application of Compound I and control of lantana (Lantana camara) and trumpetcreeper (Campsis radicans). Plants were sprayed postemergence with Compound I formulated in a non-phytotoxic solvent. Treated plants were visually rated 26 days after treatment and compared with appropriate controls. Injury ratings were based on the scale of 0 to 100, where 0 indicates no effect, 20 indicates minimal effect and 100 indicates complete control.

Wild mustard = assay: Test 7 postemergence; format: in vivo; conditions: scale 0-100
Tansy mustard = assay: Test 7 postemergence; format: in vivo, Descurainia pinnata; conditions: scale 0-100
Procedure: as §1, §2

Guinea Grass = assay: Test 5 sugarcane injury and weed control, postemergence; format: in vivo, P. maximum; conditions: scale 0-100
Procedure: as §5, §6

Matricaria = assay: Test 7 postemergence; format: in vivo, Matricaria spp; conditions: scale 0-100
Procedure: as §1, §2

SMILES: COC(=O)c1cccnc1S(=O)(=O)NC(=O)Nc1nc(OC)cc(OC)n1 [Compound I, 2-[[(4,6-dimethoxypyrimidin-2-yl)aminocarbonyl]aminosulfonyl]-3-pyridinecarboxylic acid, methyl ester]
- Plant Injury Rating 18 DAT (Kentucky bluegrass; 16 g/ha): 100
- Plant Injury Rating 18 DAT (Kentucky bluegrass; 32 g/ha): 100
- Injury ratings (Common ragweed): 20
- Plant Injury Rating 27 DAT (Large Crabgrass; 8 g/ha): 30
- Plant Injury Rating 27 DAT (Large Crabgrass; 16 g/ha): 60
- Plant Injury Rating 27 DAT (Large Crabgrass; 32 g/ha): 80
- Plant Injury Rating 27 DAT (Large Crabgrass; 64 g/ha): 100
- Plant Injury Rating 22 DAT (Coffee; 8 g/ha): 0
- Plant Injury Rating 22 DAT (Coffee; 16 g/ha): 0
- Plant Injury Rating 22 DAT (Coffee; 32 g/ha): 0
- Control Rating 20 DAT (Goldenrod; 16 g/ha): 30
- Control Rating 20 DAT (Goldenrod; 32 g/ha): 30
- Injury ratings (Goosegrass): 90
- Injury ratings (Lantana; 8 g/ha): 0
- Injury ratings (Lantana; 16 g/ha): 10
- Injury ratings (Lantana; 32 g/ha): 30
- Plant Injury Rating 18 DAT (Wild mustard; 16 g/ha): 100
- Plant Injury Rating 18 DAT (Wild mustard; 32 g/ha): 100
- Plant Injury Rating 18 DAT (Tansy mustard; 16 g/ha): 100
- Plant Injury Rating 18 DAT (Tansy mustard; 32 g/ha): 100
- Plant Injury Rating 27 DAT (Guinea Grass; 8 g/ha): 30
- Plant Injury Rating 27 DAT (Guinea Grass; 16 g/ha): 70
- Plant Injury Rating 27 DAT (Guinea Grass; 32 g/ha): 80
- Plant Injury Rating 27 DAT (Guinea Grass; 64 g/ha): 100
- Plant Injury Rating 18 DAT (Matricaria; 16 g/ha): 100
- Plant Injury Rating 18 DAT (Matricaria; 32 g/ha): 100
